Source: patent publication US20260027116A1, “Methods of Treating Chronic Graft-Versus-Host Disease Following Allogeneic Hematopoietic Stem Cell Transplantation” (Kadmon Corporation, LLC, priority 2022, published 2026)

Test system: cGVHD symptom burden
Assay: Example 1: Lee Symptom Scale (LSS) score
Type: in vivo, human
Experimental: Lee Symptom Scale (LSS) summary score measures the effect on patients' functioning and well-being. The Lee Symptom Scale is a 30-item scale developed to measure the symptoms of cGVHD and is described in Lec S J, Cook E F, Soiffer R, Antin J H. Development and validation of a scale to measure symptoms of chronic graft-versushost disease. Biol Blood Marrow Transplant 2002; 8:444-452.
All responses were assessed by the investigators.
Change From Baseline in Overall Score on Lee cGvHD Symptom Scale at Specified Time Points. Lee cGVHD symptom scale, a patient-reported symptom scale used to measure symptom burden and has 7 subscales (Skin, Eyes and Mouth, Breathing, Eating and Digestion, Muscles and Joints, Energy, and Mental and Emotional) with ratings as follows: 0—Not at all, 1—Slightly, 2—Moderately, 3—Quite a bit, 4—Extremely, with lower values representing better outcome. Score for each subscale was normalized to a score ranged from 0 to 100, where higher score=worse symptoms. An overall score was calculated as average of these 7 subscales. EOT visit was performed within 3 days after the participant's last dose of study drug. Baseline value was defined as valid and last non-missing value obtained within 28 days prior to participant receiving first study medication. […] Analysis was performed on mITT population. Here, ‘number analyzed’=participants with available data for each specified category. Here, ‘0’ in the number analyzed field signifies that none of the participants were available for the analysis at the specified time points.

CC(C)NC(=O)COc1cccc(-c2nc(Nc3ccc4[nH]ncc4c3)c3ccccc3n2)c1 [Belumosudil, 2-{3-[4-(1H-indazol-5-ylamino)-2-quinazolinyl]phenoxy}-N-(propan-2-yl) acetamide]
LSS improvement, nonresponder, n/N (Cohort 1 200 mg QD): 1/6 | LSS improvement, responder, n/N (Cohort 1 200 mg QD): 8/11 | Change From Baseline in Overall Score on Lee cGvHD Symptom Scale, Mean (Standard Deviation) (Cohort 1: 200 mg QD, Cycle 3, Day 1): −3.0 (8.5) score on a scale | Change From Baseline in Overall Score on Lee cGvHD Symptom Scale, Mean (Standard Deviation) (Cohort 1: 200 mg QD, Cycle 5, Day 1): −3.7 (11.0) score on a scale | Change From Baseline in Overall Score on Lee cGvHD Symptom Scale, Mean (Standard Deviation) (Cohort 1: 200 mg QD, Cycle 7, Day 1): −4.9 (8.4) score on a scale | Change From Baseline in Overall Score on Lee cGvHD Symptom Scale, Mean (Standard Deviation) (Cohort 1: 200 mg QD, Cycle 9, Day 1): −3.7 (10.7) score on a scale | Change From Baseline in Overall Score on Lee cGvHD Symptom Scale, Mean (Standard Deviation) (Cohort 1: 200 mg QD, Cycle 11, Day 1): −3.4 (11.5) score on a scale | Change From Baseline in Overall Score on Lee cGvHD Symptom Scale, Mean (Standard Deviation) (Cohort 1: 200 mg QD, Cycle 12, Day 1): −3.9 (8.1) score on a scale | Change From Baseline in Overall Score on Lee cGvHD Symptom Scale, Mean (Standard Deviation) (Cohort 1: 200 mg QD, Cycle 13, Day 1): −5.8 (14.7) score on a scale | Change From Baseline in Overall Score on Lee cGvHD Symptom Scale, Mean (Standard Deviation) (Cohort 1: 200 mg QD, Cycle 14, Day 1): −1.6 (17.1) score on a scale | Change From Baseline in Overall Score on Lee cGvHD Symptom Scale, Mean (Standard Deviation) (Cohort 1: 200 mg QD, Cycle 15, Day 1): −4.8 (15.8) score on a scale | Change From Baseline in Overall Score on Lee cGvHD Symptom Scale, Mean (Standard Deviation) (Cohort 1: 200 mg QD, Cycle 16, Day 1): −4.6 (16.1) score on a scale | Change From Baseline in Overall Score on Lee cGvHD Symptom Scale, Mean (Standard Deviation) (Cohort 1: 200 mg QD, Cycle 27, Day 1): −3.5 (25.3) score on a scale | Change From Baseline in Overall Score on Lee cGvHD Symptom Scale, Mean (Standard Deviation) (Cohort 1: 200 mg QD, Cycle 28, Day 1): 4.4 (13.4) score on a scale | Change From Baseline in Overall Score on Lee cGvHD Symptom Scale, Mean (Standard Deviation) (Cohort 1: 200 mg QD, Cycle 29, Day 1): −2.8 (23.7) score on a scale | Change From Baseline in Overall Score on Lee cGvHD Symptom Scale, Mean (Standard Deviation) (Cohort 1: 200 mg QD, Cycle 30, Day 1): 9.0 (7.5) score on a scale | Change From Baseline in Overall Score on Lee cGvHD Symptom Scale, Mean (Standard Deviation) (Cohort 1: 200 mg QD, Cycle 31, Day 1): −4.8 (27.9) score on a scale | Change From Baseline in Overall Score on Lee cGvHD Symptom Scale, Mean (Standard Deviation) (Cohort 1: 200 mg QD, Cycle 32, Day 1): 10.3 (6.9) score on a scale | Change From Baseline in Overall Score on Lee cGvHD Symptom Scale, Mean (Standard Deviation) (Cohort 1: 200 mg QD, Cycle 33, Day 1): 0.5 (20.7) score on a scale | Change From Baseline in Overall Score on Lee cGvHD Symptom Scale, Mean (Standard Deviation) (Cohort 1: 200 mg QD, Cycle 34, Day 1): 13.5 (3.6) score on a scale | Change From Baseline in Overall Score on Lee cGvHD Symptom Scale, Mean (Standard Deviation) (Cohort 1: 200 mg QD, Cycle 35, Day 1): −2.5 (23.3) score on a scale | Change From Baseline in Overall Score on Lee cGvHD Symptom Scale, Mean (Standard Deviation) (Cohort 1: 200 mg QD, Cycle 36, Day 1): 7.5 (6.4) score on a scale | Change From Baseline in Overall Score on Lee cGvHD Symptom Scale, Mean (Standard Deviation) (Cohort 1: 200 mg QD, Cycle 37, Day 1): −5.3 (29.0) score on a scale | Change From Baseline in Overall Score on Lee cGvHD Symptom Scale, Mean (Standard Deviation) (Cohort 1: 200 mg QD, Cycle 38, Day 1): 9.1 (5.2) score on a scale | Change From Baseline in Overall Score on Lee cGvHD Symptom Scale, Mean (Standard Deviation) (Cohort 1: 200 mg QD, Cycle 39, Day 1): −6.2 (25.9) score on a scale | Change From Baseline in Overall Score on Lee cGvHD Symptom Scale, Mean (Standard Deviation) (Cohort 1: 200 mg QD, Cycle 40, Day 1): 2.7 (—) score on a scale | Change From Baseline in Overall Score on Lee cGvHD Symptom Scale, Mean (Standard Deviation) (Cohort 1: 200 mg QD, Cycle 41, Day 1): −25.7 (—) score on a scale | Change From Baseline in Overall Score on Lee cGvHD Symptom Scale, Mean (Standard Deviation) (Cohort 1: 200 mg QD, Cycle 42, Day 1): 4.6 (—) score on a scale | Change From Baseline in Overall Score on Lee cGvHD Symptom Scale, Mean (Standard Deviation) (Cohort 1: 200 mg QD, Cycle 43, Day 1): −20.4 (—) score on a scale | Change From Baseline in Overall Score on Lee cGvHD Symptom Scale, Mean (Standard Deviation) (Cohort 1: 200 mg QD, Cycle 44, Day 1): 4.3 (—) score on a scale | Change From Baseline in Overall Score on Lee cGvHD Symptom Scale, Mean (Standard Deviation) (Cohort 1: 200 mg QD, Cycle 46, Day 1): 4.6 (—) score on a scale | Change From Baseline in Overall Score on Lee cGvHD Symptom Scale, Mean (Standard Deviation) (Cohort 1: 200 mg QD, Cycle 47, Day 1): −6.8 (—) score on a scale | Change From Baseline in Overall Score on Lee cGvHD Symptom Scale, Mean (Standard Deviation) (Cohort 1: 200 mg QD, Cycle 48, Day 1): 2.4 (—) score on a scale | Change From Baseline in Overall Score on Lee cGvHD Symptom Scale, Mean (Standard Deviation) (Cohort 1: 200 mg QD, Cycle 50, Day 1): 4.5 (—) score on a scale | Change From Baseline in Overall Score on Lee cGvHD Symptom Scale, Mean (Standard Deviation) (Cohort 1: 200 mg QD, Cycle 51, Day 1): −12.0 (—) score on a scale | Change From Baseline in Overall Score on Lee cGvHD Symptom Scale, Mean (Standard Deviation) (Cohort 1: 200 mg QD, Cycle 52, Day 1): 6.0 (—) score on a scale | Change From Baseline in Overall Score on Lee cGvHD Symptom Scale, Mean (Standard Deviation) (Cohort 1: 200 mg QD, Cycle 53, Day 1): −19.2 (—) score on a scale | Change From Baseline in Overall Score on Lee cGvHD Symptom Scale, Mean (Standard Deviation) (Cohort 1: 200 mg QD, Cycle 54, Day 1): 4.9 (—) score on a scale | Change From Baseline in Overall Score on Lee cGvHD Symptom Scale, Mean (Standard Deviation) (Cohort 1: 200 mg QD, Cycle 55, Day 1): −16.8 (—) score on a scale | Change From Baseline in Overall Score on Lee cGvHD Symptom Scale, Mean (Standard Deviation) (Cohort 1: 200 mg QD, Cycle 56, Day 1): 1.8 (—) score on a scale | Change From Baseline in Overall Score on Lee cGvHD Symptom Scale, Mean (Standard Deviation) (Cohort 1: 200 mg QD, Cycle 57, Day 1): −17.6 (—) score on a scale | Change From Baseline in Overall Score on Lee cGvHD Symptom Scale, Mean (Standard Deviation) (Cohort 1: 200 mg QD, Cycle 58, Day 1): 5.4 (—) score on a scale | Change From Baseline in Overall Score on Lee cGvHD Symptom Scale, Mean (Standard Deviation) (Cohort 1: 200 mg QD, Cycle 59, Day 1): −12.7 (—) score on a scale | Change From Baseline in Overall Score on Lee cGvHD Symptom Scale, Mean (Standard Deviation) (Cohort 1: 200 mg QD, Cycle 60, Day 1): 4.2 (—) score on a scale | Change From Baseline in Overall Score on Lee cGvHD Symptom Scale, Mean (Standard Deviation) (Cohort 1: 200 mg QD, Cycle 61, Day 1): −19.3 (—) score on a scale | Change From Baseline in Overall Score on Lee cGvHD Symptom Scale, Mean (Standard Deviation) (Cohort 1: 200 mg QD, Cycle 62, Day 1): 4.4 (—) score on a scale | Change From Baseline in Overall Score on Lee cGvHD Symptom Scale, Mean (Standard Deviation) (Cohort 1: 200 mg QD, Cycle 63, Day 1): −18.0 (—) score on a scale | Change From Baseline in Overall Score on Lee cGvHD Symptom Scale, Mean (Standard Deviation) (Cohort 1: 200 mg QD, Cycle 67, Day 1): −21.9 (—) score on a scale | Change From Baseline in Overall Score on Lee cGvHD Symptom Scale, Mean (Standard Deviation) (Cohort 1: 200 mg QD, EOT): −4.3 (11.7) score on a scale | LSS improvement, nonresponder, n/N (Cohort 2 200 mg BID): 4/5 | LSS improvement, responder, n/N (Cohort 2 200 mg BID): 3/11 | Change From Baseline in Overall Score on Lee cGvHD Symptom Scale, Mean (Standard Deviation) (Cohort 2: 200 mg BID, Cycle 3, Day 1): 0.5 (7.3) score on a scale | Change From Baseline in Overall Score on Lee cGvHD Symptom Scale, Mean (Standard Deviation) (Cohort 2: 200 mg BID, Cycle 5, Day 1): −3.7 (7.0) score on a scale | Change From Baseline in Overall Score on Lee cGvHD Symptom Scale, Mean (Standard Deviation) (Cohort 2: 200 mg BID, Cycle 7, Day 1): −2.2 (8.8) score on a scale | Change From Baseline in Overall Score on Lee cGvHD Symptom Scale, Mean (Standard Deviation) (Cohort 2: 200 mg BID, Cycle 8, Day 1): −7.1 (10.1) score on a scale | Change From Baseline in Overall Score on Lee cGvHD Symptom Scale, Mean (Standard Deviation) (Cohort 2: 200 mg BID, Cycle 9, Day 1): −4.2 (5.5) score on a scale | Change From Baseline in Overall Score on Lee cGvHD Symptom Scale, Mean (Standard Deviation) (Cohort 2: 200 mg BID, Cycle 10, Day 1): −2.7 (6.1) score on a scale | Change From Baseline in Overall Score on Lee cGvHD Symptom Scale, Mean (Standard Deviation) (Cohort 2: 200 mg BID, Cycle 11, Day 1): −5.5 (6.0) score on a scale | Change From Baseline in Overall Score on Lee cGvHD Symptom Scale, Mean (Standard Deviation) (Cohort 2: 200 mg BID, Cycle 12, Day 1): −7.6 (7.7) score on a scale
